# pKi: −log10 of the molar value. Peptide text beside a SMILES is read from it. * marks the point of attachment. Cbz = O=C(OCc1ccccc1)*; CH2F = FC*
# What was measured:
# Format in all cases: biochemical
# Conditions in all cases: continuous assay sixty minutes, reaction initiated by adding enzyme to substrate-inhibitor mixture; Ki by simulating AMC formation (Equation 1)
# [1] = target: T1, mICE (Mus musculus, UniProt P29452); experiment: Ki determination, ICE/ced-3 family protease fluorescence assay (mICE)
# T1 sequence (P29452 123-296 limits assumed): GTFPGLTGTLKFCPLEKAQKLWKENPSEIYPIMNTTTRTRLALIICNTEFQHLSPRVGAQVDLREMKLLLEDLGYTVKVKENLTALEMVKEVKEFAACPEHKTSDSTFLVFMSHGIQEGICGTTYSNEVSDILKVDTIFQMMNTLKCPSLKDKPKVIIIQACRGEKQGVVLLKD
# T1 sequence (P29452 315-402 limits assumed): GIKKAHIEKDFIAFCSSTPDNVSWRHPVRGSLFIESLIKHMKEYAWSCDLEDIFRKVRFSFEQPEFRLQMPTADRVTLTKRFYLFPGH
# Protocol: (§1) Fluorescence enzyme assays detecting the activity of the compounds of Formula I utilizing the recombinant ICE and CPP32 enzymes are performed essentially according to Thorrberry et al. (Nature, 356:768:774 (1992)) and Nicholson et al. (Nature, 376:37-43 (1995)) respectively, (herein incorporated by reference) in 96 well microtiter plates. The substrate is Acetyl-Tyr-Val-Ala-Asp-amino-4-methylcoumarin (AMC) (SEQ ID NO: 1) for the ICE assay and Acetyl-Asp-Glu-Val-Asp-amino-4-methylcoumarin (SEQ ID NO: 2) for the CPP32, Mch2, Mch3 and Mch5 assays. Enzyme reactions are run in ICE buffer (25 mM HEPES, 1 mM EDTA, 0.1% CHAPS, 10% sucrose, pH 7.5) containing 2 mM DTT at room temperature in duplicate. The assays are performed by mixing the following components:
# (§2) 50 μL ICE, Mch2, Mch5, CPP32 (18.8, 38, 8.1 and 0.153 nM concentrations, respectively) or Mch3 (1 unit) enzyme in ICE buffer containing either 8.0 (ICE, Mch2, Mch3, CPP32) or 20 (Mch5) mM DTT;
# (§3) 50 μL compound of Formula I or ICE buffer (control); and […]
# (§4) […] Fluorescent AMC product formation is monitored for one hour at room temperature by measuring the fluorescence emission at 460 nm using an excitation wavelength of 360 nm. […]
# (§5) The product formation at time t may be expressed as: [formula] […]
# (§6) The activity of a representative compound of this invention (i.e., Compound No. 1) evaluated according to the procedures disclosed in Example 1. […]
# [2] = target: T2, CPP32 (Homo sapiens, UniProt P42574); experiment: Ki determination, ICE/ced-3 family protease fluorescence assay (CPP32)
# T2 sequence (P42574 29-175 limits assumed): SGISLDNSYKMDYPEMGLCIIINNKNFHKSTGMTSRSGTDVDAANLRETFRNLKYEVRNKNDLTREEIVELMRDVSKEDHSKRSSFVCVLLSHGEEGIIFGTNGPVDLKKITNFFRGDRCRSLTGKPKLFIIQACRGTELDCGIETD
# T2 sequence (P42574 176-277 limits assumed): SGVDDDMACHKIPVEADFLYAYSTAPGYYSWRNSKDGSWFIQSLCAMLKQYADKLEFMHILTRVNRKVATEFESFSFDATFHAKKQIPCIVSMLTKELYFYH
# Protocol: as §1, §2, §3, §4, §5, §6
# [3] = target: T3, MCH-2 (Homo sapiens, UniProt P55212); experiment: Ki determination, ICE/ced-3 family protease fluorescence assay (MCH-2)
# T3 sequence (P55212 24-179 limits assumed): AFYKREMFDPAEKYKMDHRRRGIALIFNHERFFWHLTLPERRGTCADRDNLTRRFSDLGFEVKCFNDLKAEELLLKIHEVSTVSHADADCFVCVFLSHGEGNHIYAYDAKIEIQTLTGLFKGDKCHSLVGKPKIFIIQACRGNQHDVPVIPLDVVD
# T3 sequence (P55212 194-293 limits assumed): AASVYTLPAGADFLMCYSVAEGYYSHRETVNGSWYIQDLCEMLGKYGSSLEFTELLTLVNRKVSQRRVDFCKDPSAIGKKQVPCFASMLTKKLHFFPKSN
# Protocol: as §1, §2, §3, §4, §5, §6
# [4] = target: MCH-5 (Homo sapiens, UniProt Q14790); experiment: Ki determination, ICE/ced-3 family protease fluorescence assay (MCH-5)
# Protocol: as §1, §2, §3, §4, §5, §6
pKi [1],pKi [2],Ki [3],pKi [4],SMILES
7.82,6.09,0.594 µM,7.74,"CC(NC(=O)C(NC(=O)OCc1ccccc1)C(C)C)C(=O)NC(CC(=O)O)C(=O)CF (stereo not drawn) [reference, Cbz-ValAlaAsp-CH2F] (Cbz-Val-Ala-Asp-CH2F; configuration not given here)"
8.40,6.07,0.681 µM,7.96,C[C@H](NC(=O)C(=O)Nc1ccccc1C(C)(C)C)C(=O)N[C@@H](CC(=O)NS(C)(=O)=O)C(=O)COc1c(F)c(F)cc(F)c1F [compound 1]
